Reference: US20210292304A1 (HINOVA PHARMACEUTICALS INC., priority 2018, published 2021)

Biological target: T1, CYP2C8 (Homo sapiens, UniProt P10632)
T1 sequence (P10632 1-490): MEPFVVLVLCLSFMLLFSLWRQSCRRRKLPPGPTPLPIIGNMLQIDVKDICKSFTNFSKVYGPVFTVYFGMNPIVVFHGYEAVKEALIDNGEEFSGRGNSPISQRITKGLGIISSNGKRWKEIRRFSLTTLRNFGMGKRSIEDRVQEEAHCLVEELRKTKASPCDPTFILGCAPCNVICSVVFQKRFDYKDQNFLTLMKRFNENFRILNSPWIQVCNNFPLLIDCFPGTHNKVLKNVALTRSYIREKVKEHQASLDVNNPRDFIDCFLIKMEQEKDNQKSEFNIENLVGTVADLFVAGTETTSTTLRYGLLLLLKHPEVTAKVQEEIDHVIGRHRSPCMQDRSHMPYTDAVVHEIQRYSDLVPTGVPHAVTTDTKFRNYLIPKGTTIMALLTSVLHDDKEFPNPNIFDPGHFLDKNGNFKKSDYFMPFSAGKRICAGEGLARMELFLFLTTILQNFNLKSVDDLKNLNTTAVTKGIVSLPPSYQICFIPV
Assay: Metabolic stability in recombinant human CYP2C8 metabolic enzyme
Format: in vitro ADME
Conditions: CYP subtype 2C8, test concentration 2 (M); for half-life at 2 µM: human, recombinant CYP2C8, pH 7.4, read-out: Half-life T1/2
Experimental: 1) Na2HPO4, KH2PO4, and pure water were used to prepare phosphate buffer (100 mM, pH 7.4);
2) Test compound and reference compound were dissolved in acetonitrile to obtain a working solution (200 M);
3) NADPH solution (10 mM) was prepared with NADPH and phosphate buffer (100 mM, pH 7.4);
4) The stock solution of recombinant CYP2C8 enzyme was diluted to […] with phosphate buffer (100 mM, pH 7.4);
5) The working solution of test compound or reference compound Amitriptyline was added to CYP2C8 solution, and the concentration of compound was 2 M, to which was added NADPH solution (10 mM) to initiate a metabolic reaction. 30 L incubation solution of metabolic reaction was collected at 0, 5, 10, 15, 25 minutes, and transferred to a quenching plate to quench with 120 L acetonitrile (including internal standard);
6) The sample was centrifuged at 4° C. for 60 min to precipitate the protein. The supernatant was collected and transferred to a 96-well plate, then diluted one times with pure water, and subjected to LC-MS/MS analysis;
7) The data analysis and calculation were similar to experimental example 2.

Clearance rate CLint [μL/min/pmol CYP450]	Percentage of residual substances after 25 minutes [%]	half-life at 2 µM [h]	SMILES
0.06	85.57	1.83	[2H]c1c(Oc2c(Cl)cc(-n3nc(C#N)c(=O)[nH]c3=O)cc2Cl)n[nH]c(=O)c1C(C([2H])([2H])[2H])C([2H])([2H])[2H] [Compound 11, 2-(3,5-dichloro-4-((4-deuterio-5-(1,1,1,3,3,3-hexadeuteropropan-2-yl)-6-oxo-1,6-dihydro-pyridazin-3-yl)oxy)phenyl)-3,5-dioxo-2,3,4,5-tetrahydro-1,2,4-triazine-6-carbonitrile]
0.08	80.87	1.51	[2H]C([2H])([2H])C([2H])(c1cc(Oc2c(Cl)cc(-n3nc(C#N)c(=O)[nH]c3=O)cc2Cl)n[nH]c1=O)C([2H])([2H])[2H] [Compound 2]
0.07	81.60	1.6	[2H]c1c(Oc2c(Cl)cc(-n3nc(C#N)c(=O)[nH]c3=O)cc2Cl)n[nH]c(=O)c1C([2H])(C([2H])([2H])[2H])C([2H])([2H])[2H] [Compound 10, 2-(3,5-dichloro-4-((4-deuterio-5-(heptadeuteroisopropyl)-6-oxo-1,6-dihydro-pyridazin3-yl)oxy)phenyl)-3,5-dioxo-2,3,4,5-tetrahydro-1,2,4-triazine-6-carbonitrile]
